Measured values taken from patent US11440923B2, “Substituted macrocyclic indole derivatives” (Bayer Aktiengesellschaft, priority 2017, dated 2022).

Assays:
NCI-H23 cells = assay: Antiproliferation assay NCI-H23 (Assay 7); format: cell-based; conditions: 72 h, CellTiter-Glo; read-out: Antiproli NCI-H23 IC50
Description: (§1) Assessment of the Anti-Proliferative Effect of Compounds in Different Cell Lines
(§2) The impact of compounds on the proliferation of different cell lines was assessed using the CellTiter-Glo® Luminescent Cell Viability reagent from Promega (G7573).
(§3) In parallel, cells were plated in a reference (day 0) plate for time zero determination. Cells were incubated in a humidified incubator at 37° C. overnight.
(§4) Rim wells were excluded. The cells were incubated for 72 h hours in a humidified incubator at 37° C. The day 0 plate was measured by adding 30 μL/well of CTG solution (CellTiter-Glo® Luminescent Cell Viability reagent, Promega G7573) to time zero wells in the reference plate followed by a 10 minutes incubation and luminescence reading at 0.1 ms. using the PHERAstar FS microplate reader (BMG Labtech).
(§5) After 72 h incubation, the treated plates were measured in the same way as the day 0 plate mentioned above. The Bella DRC Master Sheet was used to calculate IC50s, with CI=day 0 values and C0=DMSO control values.

AMO-1 cells = assay: Antiproliferation assay AMO-1 (Assay 7); format: cell-based; conditions: 72 h, CellTiter-Glo; read-out: Antiproli AMO-1 IC50 median
Procedure, shortened: (§6)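 Anti-proliferative effect was measured by CellTiter-Glo ATP luminescence after 72 h compound exposure at 37° C, following overnight plating. IC50s were derived using a parallel time-zero plate and DMSO-treated controls as reference points.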

MV-4-11 cells = assay: Antiproliferation assay MV-4-11 (Assay 7); format: cell-based; conditions: 72 h, CellTiter-Glo; read-out: Antiproli MV-4-11 IC50 median
Description: as §1, §2, §3, §4, §5

SK-MEL-2 cells = assay: Antiproliferation assay SK-MEL-2 (Assay 7); format: cell-based; conditions: 72 h, CellTiter-Glo; read-out: Antiproli SK-MEL-2 IC50 median
Description: as §1, §2, §3, §4, §5

A2058 cells = assay: Antiproliferation assay A2058 (Assay 7); format: cell-based; conditions: 72 h, CellTiter-Glo; read-out: Antiproli A2058 IC50
Description: as §1, §2, §3, §4, §5

A2780 cells = assay: Antiproliferation assay A2780 (Assay 7); format: cell-based; conditions: 72 h, CellTiter-Glo; read-out: Antiproli A2780 IC50 median
Description: as §1, §2, §3, §4, §5

HMC-1-8 cells = assay: Antiproliferation assay HMC-1-8 (Assay 7); format: cell-based; conditions: 72 h, CellTiter-Glo; read-out: Antiproli HMC-1-8 IC50 median
Procedure, shortened: as §6

SK-BR-3 cells = assay: Antiproliferation assay SK-BR-3 (Assay 7); format: cell-based; conditions: 72 h, CellTiter-Glo; read-out: Antiproli SK-BR-3 IC50 median
Description: as §1, §2, §3, §4, §5

SNU-389 cells = assay: Antiproliferation assay SNU-389 (Assay 7); format: cell-based; conditions: 72 h, CellTiter-Glo; read-out: Antiproli SNU-389 IC50
Description: as §1, §2, §3, §4, §5

REC-1 cells = assay: Antiproliferation assay REC-1 (Assay 7); format: cell-based; conditions: 72 h, CellTiter-Glo; read-out: Antiproli REC-1 IC50
Description: as §1, §2, §3, §4, §5

SUDHL10 cells = assay: Induction of cytotoxicity in SUDHL10 cells (Assay 6); format: cell-based; conditions: 5 h, CellTiter-Glo; read-out: Cytotox SUDHL10 IC50 (median)
Procedure, shortened: (§7)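 Cells plated overnight at 37 °C, then exposed to compound for 5 h in a humidified incubator at 37 °C. Viability read by CellTiter-Glo luminescence after 15 min shaking at room temperature; cell-free medium served as control.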

SUDHL5 cells = assay: Induction of cytotoxicity in SUDHL5 cells (Assay 6); format: cell-based; conditions: 5 h, CellTiter-Glo; read-out: Cytotox SUDHL5 IC50 (median)
Procedure, shortened: as §7

MCL-1 = MCL-1 (Homo sapiens (Human), UniProt Q07820, K194A/K197A/R201A); assay: Protein-protein interaction assay MCL-1/Noxa BH3 peptide (MCL-1 assay, TR-FRET); format: binding; conditions: read-out: MCL-1 Assay IC50 (median)
Sequence of MCL-1 (Q07820 whole entry, looked up, stated change not applied, the tested form may be a part): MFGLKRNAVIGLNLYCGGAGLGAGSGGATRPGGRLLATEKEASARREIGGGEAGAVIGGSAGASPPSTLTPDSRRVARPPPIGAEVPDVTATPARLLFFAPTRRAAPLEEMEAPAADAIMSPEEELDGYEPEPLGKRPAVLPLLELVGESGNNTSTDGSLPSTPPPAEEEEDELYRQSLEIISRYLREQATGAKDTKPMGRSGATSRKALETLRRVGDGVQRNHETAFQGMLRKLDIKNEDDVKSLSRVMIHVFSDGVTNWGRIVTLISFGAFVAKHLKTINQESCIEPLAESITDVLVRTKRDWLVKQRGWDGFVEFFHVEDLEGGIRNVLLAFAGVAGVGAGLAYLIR
Procedure, shortened: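 IC50 came from a 4-parameter regression of the 665/620 nm emission ratio, normalized to DMSO controls. The mix held 1 nM MBP-fused MCL-1 (residues 173-321), a biotin-Noxa BH3 tracer and compound in Tris buffer pH 7, incubated 10 min plus 1 h at 22° C., then overnight at 4° C.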

MBP-MCL1 = MBP-MCL1 (Homo sapiens (Human), UniProt Q07820, K194A/K197A/R201A); assay: X-ray crystallographic analysis of MBP-MCL1 in complex with inhibitor; format: binding; conditions: MBP-MCL1 co-crystal structure
Sequence of MBP-MCL1 (Q07820 whole entry, looked up, stated change not applied): as the sequence (Q07820 whole entry, looked up, stated change not applied, the tested form may be a part) above
Description: For clarity only the ligand non-hydrogen atoms are shown. Carbon atom C7 unambiguously features the (R)-configuration and the bound atropisomer as defined by the C4-C38 axis is the (Ra)-configuration.
The X-ray crystallographic analysis described in the MCL-1 structural analysis section infra, provides an atomic resolution view of the relative arrangement of the atoms of MBP-MCL1 in complex with example 47.

Structure (SMILES)	IC50 (NCI-H23 cells) [µM]	IC50 (AMO-1 cells) [µM]	IC50 (MV-4-11 cells) [µM]	IC50 (SK-MEL-2 cells) [µM]	IC50 (A2058 cells) [µM]	IC50 (A2780 cells) [µM]	IC50 (HMC-1-8 cells) [µM]	IC50 (SK-BR-3 cells) [µM]	IC50 (SNU-389 cells) [µM]	IC50 (REC-1 cells) [µM]	IC50 (SUDHL10 cells) [µM]	IC50 (SUDHL5 cells) [µM]	IC50 (MCL-1) [µM]	interaction with the target MCL1 shown by X-ray structure of the complex (MBP-MCL1)
Cc1c2c(nn1C)C(CCN1CCOCC1)OCCCCn1c(C(=O)O)c(CCCOc3cccc4ccccc34)c3cccc-2c31 (centres unmarked) [Example 05]	6.98	9.47	1.75	11.6	12.8	14.4	6.29	7.3						
Cc1c2c(nn1C)C(CCN1CCOCC1)OCCCCn1c(C(=O)O)c(CCCOc3cccc4ccccc34)c3cccc-2c31 (centres unmarked) [Example 04]		2.56	1.75			14.3			10.7	21				
CCc1c2c(nn1C)[C@@H](CCN1CCOCC1)OCCCCn1c(C(=O)O)c(CCCOc3cccc4cc(F)ccc34)c3ccc(Cl)c-2c31 [Example 47, (+)-4-chloro-3-ethyl-7-{3-[(6-fluoronaphthalen-1-yl)oxy]propyl}-2-methyl-(15R)-[2-(morpholin-4-yl)ethyl]-2,10,11,12,13,15-hexahydropyrazolo[4′,3′:9,10][1,6]oxazacycloundecino[8,7,6-hi]indole-8-carboxylic Acid]											0.0079	0.0082	0.00037	clear and direct interaction
